Experimental data taken from patent US20110086891A1, “Solid Forms of 2-(2,4-Difluorophenyl)-6-(1-(2,6-Difluorophenyl)Ureido)Nicotinamide)” (Vertex Pharmaceuticals Incorporated, priority 2009, published 2011).
Values after ≈ are worked out from the molar mass of the structure shown. “Also recorded” adds a separate entry of the source.

What was measured:
Format in all cases: physicochemical
[1] = Apparent (non-equilibrium) solubilities of Form C in various solvents; details: thermodynamic from solid
Protocol: Table XIII contains representative apparent (non-equilibrium) solubilities of Form C in various exemplary solvents.
Fifty (50.0) mg of Compound I, Form C was weighed into a small, screw-top vial. The relevant solvent was added in portions until a clear solution was obtained. In several cases, solubilization was aided by heating with a heat gun and then allowed to cool down to rt. The data provided in Table XIII are representative and some variability may occur between lots of a particular sample, e.g., about 10%.

[2] = Gravimetric vapour sorption (GVS) studies
Protocol: All samples were run on a Hiden IGASorp moisture sorption analyzer running CFRSorp software. Sample sizes were typically 10 mg. A moisture absorption-desorption isotherm was performed as outlined below in Table X (2 scans giving 1 complete cycle). All samples were loaded/unloaded at typical room humidity and temperature (40% RH, 25° C.). All samples were analysed by XRPD post GVS analysis. The standard isotherm was performed at 25° C. at 10% RH intervals over a 0-90% RH range.

[3] = Relative stability studies: slurrying 1:1 mixtures of forms in 3:1 water:ethanol at various temperatures; details: slurry in 3:1 water:ethanol
Protocol: 1:1 mixtures of Form C and form G of Compound I were slurried in 3:1 water:ethanol at a range of temperatures to determine the relative stability at different temperatures. 5 mg of Form C was mixed with 5 mg of Form G in a glass vial. 1.0 ml of 3:1 water:ethanol was added and the resulting slurry was stirred at 5° C. for 10 days. The resulting solid was isolated by filtration and analysed by XRPD (see FIG. 17).
(§1) The above procedure was repeated at 25, 50 and 80° C.
1:1 mixtures of Form C and Form F were slurried in 3:1 water:ethanol at a range of temperatures to determine the relative stability at different temperatures. […] Ethanol was used in addition to water in order to increase the amount of Compound I in solution and so increase the rate of conversion between forms. Ethanol was chosen as no ethanol solvate of Compound I was known. 10 mg of Form C was mixed with 10 mg of Form F in a glass vial. 2.0 ml of 3:1 water:ethanol was added and the resulting slurry was stirred at 5° C. for 24 hours. Solid was isolated by filtration and analysed by XRPD.
as §1
1:1 mixtures of Form F and Form G were slurried in 3:1 water:ethanol at a range of temperatures to determine the relative stability at different temperatures. 10 mg of Form F was mixed with 10 mg of Form G in a glass vial. 2.0 ml of 3:1 water:ethanol was added and the resulting slurry was stirred at 5° C. for 24 hours. The resulting solid was isolated by filtration and analysed by XRPD. The above procedure was repeated at 25, 50 and 70° C. 70° C. was used instead of 80° C. in an attempt to reduce degradation.

[4] = Stability studies at 40° C./75% RH (physical and chemical stability, XRPD)
Excerpt: In some embodiments, less than 25% of the solid form of Compound I decomposes, in some embodiments, less than about 20%, less than about 15%, less than about 10%, less than about 5%, less than about 3%, less than about 1%, less than about 0.5% of the form of Compound I decomposes under the conditions specified. In some embodiments, no detectable amount of the solid form of Compound I decomposes. […] In some embodiments, less than 25% of the solid form of Compound I changes into one or more different physical forms when subjected to specified conditions. In some embodiments, less than about 20%, less than about 15%, less than about 10%, less than about 5%, less than about 3%, less than about 1%, less than about 0.5% of the solid form of Compound I changes into one or more different physical forms of Compound I when subjected to specified conditions. In some embodiments, no detectable amount of the solid form of Compound I changes into one or more physically different solid forms of Compound I.

[5] = Solubility analysis (in water); details: 25 °C, thermodynamic from solid
Protocol: This was measured by suspending enough Compound I in 0.25 mL of solvent (water) to give a maximum final concentration of ≧10 mg/ml of the parent free form of the compound. The suspension was equilibrated at 25° C. for 24 hrs followed by a pH check and filtration through a glass fibre C96 well plate. The filtrate was then diluted down by a factor of 101. Quantitation was by HPLC (Table XI) with reference to a standard, diluted and undiluted tests were injected. The solubility was calculated by integration of the peak area found at the same retention time as the peak maximum in the standard injection. If there is sufficient solid in the filter plate the XRPD is normally checked for phase changes, hydrate formation, amorphization, crystallization, etc.

[6] = Interconversion studies (slurries in EtOAc, MeOH and water); details: ambient conditions
Protocol: Interconversion studies between the different forms of Compound I described herein were carried out using the general procedure outlined here:
Interconversion studies were conducted in EtOAc, MeOH and water with materials giving XRPD patterns A, P, C and F. Attempts were made to monitor the presence of the different forms of Compound I in the methanol and ethyl acetate interconversion slurries using Raman analysis and XRPD. The presence of the solvents was dominant in the Raman spectra of the slurries. […] After slurrying for 10 days, pattern A was obtained from MeOH. Pattern C was obtained from all samples slurried in EtOAc or water. […] Interconversion data can be found in Tables XVII.

solubility ([1]; organic solvent or mixture, apparent, 1,4-dioxane): 100 mg/mL (≈ 247 mM)
solubility ([1]; organic solvent or mixture, apparent, 1-Butanol): 50 mg/mL (≈ 124 mM)
solubility ([1]; organic solvent or mixture, apparent, 2-Butanone): 50 mg/mL (≈ 124 mM)
solubility ([1]; organic solvent or mixture, apparent, 2-Propanol): 50 mg/mL (≈ 124 mM)
solubility ([1]; organic solvent or mixture, apparent, 2-Propyl Acetate): < 20 mg/mL
solubility ([1]; organic solvent or mixture, apparent, Acetone): 50 mg/mL (≈ 124 mM)
solubility ([1]; organic solvent or mixture, apparent, Acetonitrile): 33 mg/mL (≈ 81.6 mM)
solubility ([1]; organic solvent or mixture, apparent, Butyl acetate): 33 mg/mL (≈ 81.6 mM)
solubility ([1]; organic solvent or mixture, apparent, DMSO): 100 mg/mL (≈ 247 mM)
solubility ([1]; organic solvent or mixture, apparent, Dimethylformamide): 100 mg/mL (≈ 247 mM)
solubility ([1]; organic solvent or mixture, apparent, Ethanol): 50 mg/mL (≈ 124 mM)
solubility ([1]; organic solvent or mixture, apparent, Ethyl Acetate): 20 mg/mL (≈ 49.5 mM)
solubility ([1]; organic solvent or mixture, apparent, Heptane): < 20 mg/mL
solubility ([1]; organic solvent or mixture, apparent, Hexafluorophenol): 100 mg/mL (≈ 247 mM)
solubility ([1]; organic solvent or mixture, apparent, Methanol): 100 mg/mL (≈ 247 mM)
solubility ([1]; organic solvent or mixture, apparent, Methyl isobutyl ketone): 50 mg/mL (≈ 124 mM)
solubility ([1]; organic solvent or mixture, apparent, Methylene Chloride): < 20 mg/mL
solubility ([1]; organic solvent or mixture, apparent, N,N-dimethylacetamide): 100 mg/mL (≈ 247 mM)
solubility ([1]; organic solvent or mixture, apparent, Tert-butyl methyl ether): < 20 mg/mL
solubility ([1]; organic solvent or mixture, apparent, Tetrahydrofuran): 20 mg/mL (≈ 49.5 mM)
solubility ([1]; organic solvent or mixture, apparent, Toluene): 20 mg/mL (≈ 49.5 mM)
solubility ([1]; organic solvent or mixture, apparent, cyclohexane): < 20 mg/mL
solubility ([1]; apparent, Water): < 20 mg/mL
total weight gain from 0 to 90% RH ([2]; 0 to 90% RH, T=25° C.): 0.15%
weight gain up to 60% RH ([2]; up to 60% RH, 25° C.): negligible
results of stability studies as seen by XRPD (before and after spectra) [4]: before and after spectra are similar
time remaining in substantially the same physical form ([4]; 40° C./75% RH): at least two
solubility at 24 h [5]: ≥ 0.02 mg/mL
SMILES: NC(=O)c1ccc(N(C(N)=O)c2c(F)cccc2F)nc1-c1ccc(F)cc1F [Form C, 2-(2,4-difluorophenyl)-6-(1-(2,6-difluorophenyl)ureido)nicotinamide]
relative stability between forms [3]: more stable than Form G at a temperature of 50 °C or above; also recorded: more stable than Form F at 50 and 80 °C
relative stability of unsolvated forms [6]: most stable unsolvated form at ambient conditions
